According to patent publication US5969115A, “Bisazo dyes and their preparation and use” (Ilford Imaging Switzerland GMBH, priority 1997, dated 1999):

Assays:
Assay type in all cases: physicochemical
[1] = Dye solubility in deionised water; settings: for Solubility: deionised water, stirred 1 hour at 50° C., cooled to 20° C., Table 5
Method: The dye was dispersed in deionised water and this dispersion was stirred for 1 hour at 50° C. Then the mixture was cooled down to 20° C., centrifuged and filtered. Dye solubility was calculated a) from visible spectral data of the filtered solution or b) based on the dried filter residue.

[2] = Color co-ordinates (L*a*b*) of printed samples; settings: for neutral black (color co-ordinates): in words
Method: (§1) The present invention, as far as it relates to inks, is further illustrated by the following examples using dyes according to our invention described in Tables 1 and 2 and dyes representing the state of the art described in Tables 3 and 4. 100 g of each ink were prepared by heating the necessary amount of dye (3-7 g), glycerol (5 g), tetraethylenglycol (1.1 g). and a biocide solution (Promexal X50, available from Zeneca, Manchester, England) (1.2 g) together with water at a temperature of 50° C. under stirring for one hour. The resulting solution was cooled down to 20° C., pH was adjusted to 7.5 and passed through a Millipore® filter of 0.5 μm pore diameter. The dye quantity was adjusted in a way that the density of the printed images was the same for all dyes.
(§2) 30 g of gelatin with a high isoelectric point (type St 70,810, available from Deutsche Gelatinefabriken, Eberbach, Germany) were dissolved in 360 ml of deionised water. 1 g of a surfactant (Olin 10G, available from Olin Corporation, Norwalk, USA) were added to this solution. Immediately before coating 6.6 g of a solution of 2-(4-dimethyl-carbamoyl-pyridino)-ethanesulfonate (3%) were added and pH was adjusted to 6.5. 100 g/m^2 of this solution was then coated onto a resin coated paper support using a bar coater. The recording medium prepared in this way was dried for 12 hours.
(§3) The inks were then jetted onto this recording medium with an HP560 ink jet printer from Hewlett-Packard. The properties of the printed samples were evaluated later on.
L*a*b*-values were measured on printed samples using a Gretag SPM 100 spectrometer, available from Gretag AG, Regensdorf, Switzerland.
Black dyes show a neutral hue if the values of a* and b*out of the L*a*b* color co-ordinates are zero.

[3] = Absorption maximum in water
Excerpt: The absorption maxima and the results of the tests (B) to (D) are listed in Table 6 for the dyes of the invention and in Table 7 for the dyes that are state of the art.

[4] = Light fastness of printed samples (density loss after xenon lamp irradiation); settings: for Density loss in %: xenon lamp, total illumination 20 kJoule/cm^2; for light fastness: printed samples, in words
Method: as §1, §2, §3
The printed samples were irradiated in an Atlas Ci35A Weather-O-Meter® with a r 6500 W Xenon lamp until a total illumination of 20 kJoule/cm^2 was reached. The density loss was measured with an X-Rite® densitometer. It is expressed as % loss of initial density.

Row | SMILES | HD max in water ([3]; Table 6) [nm] | L*a*b*-value: L* ([2]; Table 6) | L*a*b*-value: a* ([2]; Table 6) | L*a*b*-value: b* ([2]; Table 6) | Density loss in % ([4]; Table 6) [%] | also measured
1 | O=C(O)CCNc1ccc2cc(S(=O)(=O)O)c(N=Nc3ccc(N=Nc4cccc(C(=O)O)c4)c4ccc(S(=O)(=O)O)cc34)c(O)c2c1 [Compound 26, reference compound] | – | – | – | – | – | Solubility [1]: 17 g per 100 ml; L*a*b*-value: L* ([2]; state of the art dyes, Table 7): 14.7; L*a*b*-value: a* ([2]; state of the art dyes, Table 7): 14.4; L*a*b*-value: b* ([2]; state of the art dyes, Table 7): -14.6; HD max in water ([3]; state of the art dyes, Table 7): 568 nm; Density loss in % ([4]; state of the art dyes, Table 7): 8%
2 | O=S(=O)(O)CCNc1ccc2cc(S(=O)(=O)O)c(N=Nc3ccc(N=Nc4cccc(CO)c4)c4ccc(S(=O)(=O)O)cc34)c(O)c2c1 [Compound 1] | 582 | – | – | – | – | HD max in water (second maximum) ([3]; second value of the cell, Table 6): 440 nm
3 | O=C(O)c1ccc(N=Nc2ccc(N=Nc3c(S(=O)(=O)O)cc4ccc(NCCS(=O)(=O)O)cc4c3O)c3cc(S(=O)(=O)O)ccc23)cc1Cl [Compound 15] | 590 | 4.7 | 4.5 | -1.7 | 8 | neutral black (color co-ordinates) [2]: neutral blacks; light fastness [4]: excellent light fastness
4 | Nc1ccc2cc(S(=O)(=O)O)c(N=Nc3ccc(N=Nc4cc(C(=O)O)cc(C(=O)O)c4)c4ccc(S(=O)(=O)O)cc34)c(O)c2c1 [Compound 24, reference compound] | – | – | – | – | – | Solubility [1]: 12 g per 100 ml; L*a*b*-value: L* ([2]; state of the art dyes, Table 7): 27.0; L*a*b*-value: a* ([2]; state of the art dyes, Table 7): -0.7; L*a*b*-value: b* ([2]; state of the art dyes, Table 7): -8.8; HD max in water ([3]; state of the art dyes, Table 7): 571 nm
5 | O=C(O)CCc1cccc(N=Nc2ccc(N=Nc3c(S(=O)(=O)O)cc4ccc(NCCS(=O)(=O)O)cc4c3O)c3cc(S(=O)(=O)O)ccc23)c1 [Compound 13] | 575 | – | – | – | 4 | –
6 | O=S(=O)(O)CCNc1ccc2cc(S(=O)(=O)O)c(N=Nc3ccc(N=Nc4cc(Cl)c(S(=O)(=O)O)cc4Cl)c4ccc(S(=O)(=O)O)cc34)c(O)c2c1 [Compound 18] | 553 | 3.5 | 4.4 | 0.3 | 5 | neutral black (color co-ordinates) [2]: neutral blacks; light fastness [4]: excellent light fastness
7 | O=C(O)c1cc(N=Nc2ccc(N=Nc3c(S(=O)(=O)O)cc4ccc(NCCS(=O)(=O)O)cc4c3O)c3cc(S(=O)(=O)O)ccc23)cc(C(=O)O)c1 [Compound 16] | 580 | 3.8 | 3.4 | 0.5 | 1 | Solubility [1]: > 20 g per 100 ml; solubility compared with previously known dyes 24 and 26 ([1]; in words): considerably higher solubility
8 | Nc1ccc2cc(S(=O)(=O)O)c(N=Nc3ccc(N=Nc4cc(C(=O)O)cc(C(=O)O)c4)c4cc(S(=O)(=O)O)ccc34)c(O)c2c1 [Compound 25, reference compound] | – | – | – | – | – | L*a*b*-value: L* ([2]; state of the art dyes, Table 7): 10.6; L*a*b*-value: a* ([2]; state of the art dyes, Table 7): 11.7; L*a*b*-value: b* ([2]; state of the art dyes, Table 7): -0.6; HD max in water ([3]; state of the art dyes, Table 7): 556 nm; Density loss in % ([4]; state of the art dyes, Table 7): 2%
9 | O=C(O)CCC(NC(=O)c1ccc(N=Nc2ccc(N=Nc3c(S(=O)(=O)O)cc4ccc(NCCS(=O)(=O)O)cc4c3O)c3cc(S(=O)(=O)O)ccc23)cc1)C(=O)O (stereo not drawn) [Compound 14] | 576 | 19.5 | 7.5 | 2.4 | 2 | –
10 | O=C(O)c1cc(N=Nc2ccc(N=Nc3c(S(=O)(=O)O)cc4ccc(NCCS(=O)(=O)O)cc4c3O)c3ccc(S(=O)(=O)O)cc23)cc(C(=O)O)c1 [Compound 17] | 568 | 5.7 | 2.6 | 2.3 | 2 | –
11 | Nc1ccc2cc(S(=O)(=O)O)cc(O)c2c1N=Nc1ccc(N=Nc2ccc(O)c(C(=O)O)c2)c2ccc(S(=O)(=O)O)cc12 [Compound 28, reference compound] | – | – | – | – | – | L*a*b*-value: L* ([2]; state of the art dyes, Table 7): 18.8; L*a*b*-value: a* ([2]; state of the art dyes, Table 7): 18.1; L*a*b*-value: b* ([2]; state of the art dyes, Table 7): -4.1
12 | O=S(=O)(O)CCNc1ccc2cc(S(=O)(=O)O)c(N=Nc3ccc(N=Nc4cc(S(=O)(=O)O)c5cccc(S(=O)(=O)O)c5c4)c4ccc(S(=O)(=O)O)cc34)c(O)c2c1 [Compound 19] | 581 | – | – | – | 1 | –
13 | O=S(=O)(O)CCNc1ccc2cc(S(=O)(=O)O)c(N=Nc3ccc(N=Nc4ccc5c(S(=O)(=O)O)cc(S(=O)(=O)O)cc5c4)c4ccc(S(=O)(=O)O)cc34)c(O)c2c1 [Compound 20] | 582 | 9.4 | 3.8 | -3.6 | 3 | neutral black (color co-ordinates) [2]: neutral blacks; light fastness [4]: excellent light fastness
14 | Nc1ccc2cc(S(=O)(=O)O)c(N=Nc3ccc(N=Nc4cccc(C(=O)O)c4)c4ccc(S(=O)(=O)O)cc34)c(O)c2c1 [Compound 23, reference compound] | – | – | – | – | – | HD max in water ([3]; state of the art dyes, Table 7): 570 nm; Density loss in % ([4]; state of the art dyes, Table 7): 2%
15 | O=C(O)CCNc1ccc2cc(S(=O)(=O)O)c(N=Nc3ccc(N=Nc4ccc(C(=O)O)cc4)c4ccc(S(=O)(=O)O)cc34)c(O)c2c1 [Compound 27, reference compound] | – | – | – | – | – | L*a*b*-value: L* ([2]; state of the art dyes, Table 7): 23.7; L*a*b*-value: a* ([2]; state of the art dyes, Table 7): 15.1; L*a*b*-value: b* ([2]; state of the art dyes, Table 7): -16.6; HD max in water ([3]; state of the art dyes, Table 7): 564 nm; Density loss in % ([4]; state of the art dyes, Table 7): 12%

More lines, main results first:

Row | HD max in water ([3]; Table 6) [nm] | L*a*b*-value: L* ([2]; Table 6) | L*a*b*-value: a* ([2]; Table 6) | L*a*b*-value: b* ([2]; Table 6) | Density loss in % ([4]; Table 6) [%] | SMILES | also measured
16 | 573 | 2.1 | 2.0 | 0.3 | 0 | O=C(O)c1cccc(N=Nc2ccc(N=Nc3c(S(=O)(=O)O)cc4ccc(NCCS(=O)(=O)O)cc4c3O)c3cc(S(=O)(=O)O)ccc23)c1 [Compound 2] | –
17 | 578 | 2.0 | 1.5 | 0.1 | 13 | O=P(O)(O)Cc1ccc(N=Nc2ccc(N=Nc3c(S(=O)(=O)O)cc4ccc(NCCS(=O)(=O)O)cc4c3O)c3cc(S(=O)(=O)O)ccc23)cc1 [Compound 10] | –
18 | 576 | 15.5 | 5.2 | -5.9 | 1 | O=C(O)Cc1ccc(N=Nc2ccc(N=Nc3c(S(=O)(=O)O)cc4ccc(NCCS(=O)(=O)O)cc4c3O)c3cc(S(=O)(=O)O)ccc23)cc1 [Compound 7] | neutral black (color co-ordinates) [2]: neutral blacks; light fastness [4]: excellent light fastness
19 | 577 | 18.3 | 4.2 | -3.1 | 11 | O=S(=O)(O)CCNc1ccc2cc(S(=O)(=O)O)c(N=Nc3ccc(N=Nc4ccc(CCO)cc4)c4ccc(S(=O)(=O)O)cc34)c(O)c2c1 [Compound 11] | –
20 | 573 | 7.5 | 14.6 | -6.4 | 8 | O=S(=O)(O)CCNc1ccc2cc(S(=O)(=O)O)c(N=Nc3ccc(N=Nc4cccc(S(=O)(=O)O)c4)c4cc(S(=O)(=O)O)ccc34)c(O)c2c1 [Compound 6] | –
21 | 576 | 12.1 | 3.8 | -3.1 | 4 | O=C(O)CCc1ccc(N=Nc2ccc(N=Nc3c(S(=O)(=O)O)cc4ccc(NCCS(=O)(=O)O)cc4c3O)c3cc(S(=O)(=O)O)ccc23)cc1 [Compound 12] | neutral black (color co-ordinates) [2]: neutral blacks; light fastness [4]: excellent light fastness
22 | 577 | 8.9 | 14.4 | -7.5 | 7 | O=S(=O)(O)CCNc1ccc2cc(S(=O)(=O)O)c(N=Nc3ccc(N=Nc4ccc(S(=O)(=O)O)cc4)c4cc(S(=O)(=O)O)ccc34)c(O)c2c1 [Compound 4] | –
23 | 575 | 22.9 | 11.0 | -5.2 | 14 | O=S(=O)(O)CCNc1ccc2cc(S(=O)(=O)O)c(N=Nc3ccc(N=Nc4ccc(CS(=O)(=O)O)cc4)c4cc(S(=O)(=O)O)ccc34)c(O)c2c1 [Compound 9] | –
